# From US11046945B2, “Labeled glutaminase proteins, isolated glutaminase protein mutants, methods of use, and kit” (CORNELL UNIVERSITY, priority 2013, dated 2021)
# Numbering of substitutions follows the chain as printed.
# Legend:
# [1] = target: T1, 488-GAC (WT) (Mus musculus, UniProt D3Z7P3); assay: Real-time binding read-out by 488-GAC fluorescence quenching; details: for quenching of 488-GAC fluorescence (direct binding): 10 nM 488-GAC, no QSY 9-GAC
# T1 construct: plasmid (residues 72-603 for GAC, 72-674 for KGA); His-tag with thrombin cleavage site (N, cleaved yes); made in house; host or cells: pET23a vector
# T1 sequence (D3Z7P3 72-603 isoform D3Z7P3-2): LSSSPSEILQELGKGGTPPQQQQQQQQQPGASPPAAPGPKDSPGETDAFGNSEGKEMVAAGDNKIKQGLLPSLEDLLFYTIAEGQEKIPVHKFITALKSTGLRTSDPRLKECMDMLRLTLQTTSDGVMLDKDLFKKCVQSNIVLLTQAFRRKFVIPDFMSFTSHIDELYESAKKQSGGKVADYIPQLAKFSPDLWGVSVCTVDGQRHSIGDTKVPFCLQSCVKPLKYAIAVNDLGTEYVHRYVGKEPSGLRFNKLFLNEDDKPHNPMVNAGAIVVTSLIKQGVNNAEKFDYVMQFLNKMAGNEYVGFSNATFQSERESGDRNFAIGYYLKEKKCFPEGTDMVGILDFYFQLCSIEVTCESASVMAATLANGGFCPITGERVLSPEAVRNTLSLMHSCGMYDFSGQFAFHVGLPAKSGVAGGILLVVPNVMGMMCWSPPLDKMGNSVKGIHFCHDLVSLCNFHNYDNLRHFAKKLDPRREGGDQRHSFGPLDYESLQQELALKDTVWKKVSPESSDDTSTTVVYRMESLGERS
# Description: (§1) Real-time fluorescence monitoring of 488-GAC fluorescence and NADH fluorescence was performed on a Varian Carry Eclipse Fluorometer, whereas small molecule inhibition and binding titrations were performed in a 96-well format using Grenier non-binding 96-well plates in a Tecan Saphire absorbance and fluorescence plate reader. Samples for monitoring real time binding of 968 to 488-GAC were prepared by adding 10 […] (490 nm excitation/520 nm emission). Similarly, this method was replicated for monitoring real time binding of 968 to KGA and mutant forms of GAC, namely 488-D391K-GAC and 488-K316E-D391K-R459E-GAC. Titrations of 968 with mutant forms of GAC were done in triplicate and quantified by the following equation
# [formula] where F is the normalized fluorescence at given drug concentration (i.e., F/F0), and Fsat is the normalized fluorescence at saturating concentrations of drug, as shown in FIG. 7A. […] 10 nM WT GAC was added and allowed to equilibrate 2 minutes before beginning to monitor fluorescence of 488-GAC (490 nm excitation, 520 nm emission) and NADH fluorescence (340 nm excitation, 490 nm emission). […] The activity of GAC was indirectly measured by the NADH produced by the added glutamate dehydrogenase, which converts the product of glutaminase activity, glutamate, to α-ketoglutarate and ammonia through reducing NAD^+ to NADH. Because solutions containing glutamine undergo non-enzymatic degradation to glutamate, samples were further analyzed by subtracting the evolved NADH produced by glutaminase in the presence of 968, BPTES, or the equivalent volume of DMSO as a control, by the evolved NADH produced in the absence of glutaminase under identical experimental conditions. Evolved NADH was quantified using a standard curve of freshly prepared NADH (Sigma) in 50 mM Tris-Acetate pH=8.5, 0.1 mM EDTA.
# Procedures for the described real-time binding and inhibition assays were adapted for 96-well microtiter format with minor alterations. […] Quenching was quantified by subtracting the normalized fluorescence by one (i.e., 1-F/F0). […]
# [2] = test system: Dbl-transformed MEFs; details: adapted from Wang et al. 2010; cited from earlier work
# [3] = target: T2, 488-D391K-GAC (Mus musculus, UniProt D3Z7P3, D391K); assay: Real-time binding read-out by fluorescence quenching, dimer mutant; details: 20 nM 488-labeled protein, 968 titration
# T2 construct: plasmid (residues 72-603 for GAC, 72-674 for KGA); His-tag with thrombin cleavage site (N, cleaved yes); made in house; host or cells: pET23a vector
# T2 sequence (D3Z7P3 72-603 isoform D3Z7P3-2 D391K): T1 sequence (D3Z7P3 72-603 isoform D3Z7P3-2) with D320K
# Description: as §1
# [formula] where F is the normalized fluorescence at given drug concentration (i.e., F/F0), and Fsat is the normalized fluorescence at saturating concentrations of drug, as shown in FIG. 7A. […] 10 nM WT GAC was added and allowed to equilibrate 2 minutes before beginning to monitor fluorescence of 488-GAC (490 nm excitation, 520 nm emission) and NADH fluorescence (340 nm excitation, 490 nm emission). […] The activity of GAC was indirectly measured by the NADH produced by the added glutamate dehydrogenase, which converts the product of glutaminase activity, glutamate, to α-ketoglutarate and ammonia through reducing NAD^+ to NADH. […]
Compound,quenching of 488-GAC fluorescence (direct binding) [1],inhibition of the ability of Dbl-transformed MEFs to form foci [2],"binding to 488-labeled GAC (WT) ([1]; 20 nM 488-labeled protein, 968 titration)",binding to dimeric GAC (D391K) mutant [3]
O=C(Cc1ccccc1)Nc1nnc(CCSCCc2nnc(NC(=O)Cc3ccccc3)s2)s1 [BPTES],without affecting the fluorescence emission,–,–,–
CN(C)c1ccc(C2Nc3ccc4ccccc4c3C3=C2C(=O)CC(C)(C)C3)cc1Br (centres unmarked) [compound 968],concentration dependent quenching,dose dependent,capable of binding,capable of binding
